Among the data in ChEMBL document CHEMBL4417636, “Small molecule inhibitors of pendrin ion exchange and pharmaceutical compositions” (2017) are inhibition and Activity values, retold here.

Activity calls are given as the source filed them. The rule behind the calls is not given here.

Series [1] addresses T1, Pendrin (Homo sapiens) (UniProt O43511).
T1 sequence (whole entry): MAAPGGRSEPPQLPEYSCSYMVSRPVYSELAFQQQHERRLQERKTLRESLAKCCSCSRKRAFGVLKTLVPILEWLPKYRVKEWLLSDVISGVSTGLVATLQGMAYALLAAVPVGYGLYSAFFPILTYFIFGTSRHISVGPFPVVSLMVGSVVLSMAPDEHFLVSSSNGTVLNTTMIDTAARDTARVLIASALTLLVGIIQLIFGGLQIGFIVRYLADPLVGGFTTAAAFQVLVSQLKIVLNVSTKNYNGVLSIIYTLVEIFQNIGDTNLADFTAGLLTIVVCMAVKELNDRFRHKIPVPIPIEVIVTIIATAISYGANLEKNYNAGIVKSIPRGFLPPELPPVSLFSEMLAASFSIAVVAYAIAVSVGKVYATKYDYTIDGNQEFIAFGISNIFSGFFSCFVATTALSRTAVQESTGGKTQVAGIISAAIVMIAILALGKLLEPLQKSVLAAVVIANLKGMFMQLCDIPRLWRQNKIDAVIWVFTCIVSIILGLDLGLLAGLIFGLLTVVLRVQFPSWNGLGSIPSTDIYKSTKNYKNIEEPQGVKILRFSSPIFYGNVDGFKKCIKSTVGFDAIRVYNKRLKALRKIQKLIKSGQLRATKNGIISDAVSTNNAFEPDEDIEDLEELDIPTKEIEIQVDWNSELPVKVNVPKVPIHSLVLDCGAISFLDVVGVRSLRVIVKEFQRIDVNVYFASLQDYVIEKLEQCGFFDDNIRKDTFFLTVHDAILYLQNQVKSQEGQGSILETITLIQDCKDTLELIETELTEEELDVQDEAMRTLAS
In words: Time dependent inhibition of human pendrin expressed in FRT cells co-expressing EYFP-HIF assessed as reduction in pendrin-mediated C17SCN(-) exchange by pH-sensitive fluorescent probe BCECF-AM based fluorescence assay relative to control. The class given is cell-based. The following applies: TDE = time-dependent effect.

For series [2], the system named is Mus musculus. Nature of the series: Effect on renal function in C57B/6 mouse assessed as effect on blood gas values at 50 mg/kg, ip. The format is ADME, organism-based. The following applies: in vivo.
In series [3] the target is T1, Pendrin (Homo sapiens). Nature of the series: Inhibition of human pendrin expressed in FRT cells co-expressing EYFP-HIF assessed as reduction in pendrin-mediated C17F exchange incubated for 10 mins by pH-sensitive fluorescent probe BCECF-AM based fluorescence assay relative to control. The class given is cell-based.
In series [4] the test system is Mus musculus. Nature of the series: Effect on renal function in CD1 mouse assessed as effect on blood gas values at 50 mg/kg, ip. The class given is ADME, organism-based. The settings on record: in vivo.
The target of series [5] is T1, Pendrin (Homo sapiens). Nature of the series: Reversible inhibition of human pendrin expressed in FRT cells co-expressing EYFP-HIF assessed as reduction in pendrin-mediated C17SCN(-) exchange incubated for 10 mins measured after wash out by pH-sensitive fluorescent probe BCECF-AM based fluorescence assay relative to control. The class given is cell-based.
Series [6] addresses T1, Pendrin (Homo sapiens). In words: Inhibition of human pendrin expressed in FRT cells co-expressing EYFP-HIF assessed as reduction in pendrin-mediated C17HCO3(-) exchange by measuring reduction in cytoplasmic alkalinization exchange at 25 uM by pH-sensitive fluorescent probe BCECF-AM based fluorescence assay relative to control. The class given is cell-based.
In series [7] the test system is Mus musculus. In words: Potentiation of 20 mg/kg, ip bid for 8 days furosemide-induced chronic diuretic action in CD1 mouse assessed as increase in urinary Na+ excretion at 10 mg/kg, ip measured at 3 hrs relative to control. The class given is functional, organism-based.
Series [8] concerns Mus musculus. Nature of the series: Potentiation of 20 mg/kg, ip bid for 8 days furosemide-induced chronic diuretic action in CD1 mouse assessed as increase in urinary K+ excretion at 10 mg/kg, ip measured at 3 hrs relative to control. The format is functional, organism-based.
The test system of series [9] is Mus musculus. In words: Effect on renal function in C57B/6 mouse assessed as effect on urine pH at 50 mg/kg, ip. The format is ADME, organism-based. The settings on record: in vivo.
Series [10] concerns Mus musculus. Nature of the series: Effect on renal function in CD1 mouse assessed as effect on urine pH at 50 mg/kg, ip. The class given is ADME, organism-based. The settings on record: in vivo.
The test system of series [11] is Mus musculus. In words: Effect on renal function in CD1 mouse assessed as effect on urinary salt excretion at 50 mg/kg, ip measured at 3 hrs. The class given is ADME, organism-based. The settings on record: in vivo.
Series [12] has as its system Mus musculus. In words: Potentiation of 20 mg/kg, ip bid for 8 days furosemide-induced chronic diuretic action in CD1 mouse assessed as effect on urine osmolarity at 10 mg/kg, ip measured at 3 hrs relative to control. The class given is functional, organism-based.
The subject of series [13] is Mus musculus. Nature of the series: Effect on renal function in C57B/6 mouse assessed as effect on urinary salt excretion at 50 mg/kg, ip measured at 3 hrs. The format is ADME, organism-based. The settings on record: in vivo.
The target of series [14] is T1, Pendrin (Homo sapiens). Nature of the series: Inhibition of human pendrin expressed in FRT cells co-expressing EYFP-HIF assessed as reduction in pendrin-mediated C17SCN(-) exchange incubated for 10 mins by pH-sensitive fluorescent probe BCECF-AM based fluorescence assay relative to control. The class given is cell-based.

As to `Cn1nc(COc2cccc(F)c2)c2c1CCN(C(=O)Nc1ccc(Cl)cc1)C2`, the inhibition entry in series [1] was “Tde”; in series [3], “Dose-dependent effect”; in [14], “Dose-dependent effect”. Also, the Activity result in [2], in series [4], in series [9], in series [10], in [11] and in [13] was “Non-Toxic” in each case. Besides, the inhibition result in series [5] and in series [6] was “Active” each time. Besides, the outcome in series [7] and in series [8] was Active. Further, the result in series [12] was inactive.
With `Cc1n[nH]c(-c2cc(S(=O)(=O)NC3CCCc4ccccc43)c(C)s2)c1C` (stereo not drawn), the inhibition result is “Tde” in series [1], “Dose-dependent effect” in [3] and “Dose-dependent effect” in [14]. Besides, the Activity entry in series [2], in [4], in series [9], in [10], in series [11] and in [13] was “Non-Toxic” each time. Also, the inhibition entry in series [5] and in series [6] was “Active” each time. Also, the outcome in [7] and in [8] was Active. Besides, the outcome in series [12] was inactive.
